Source: PMC10215198, “Antibacterial Conjugates of Kanamycin A with Vancomycin and Eremomycin: Biological Activity and a New MS-Fragmentation Pattern of Cbz-Protected Amines” (Antibiotics, 2023)
≈ marks a conversion by molar mass, not a printed value.

Key:
[1] = system: S. aureus 3798 (VISA); test: MIC, broth micro-dilution, Gram-positive clinical isolate (VISA); type: cell-based, Staphylococcus aureus; conditions: Mueller Hinton broth, inoculum 5 × 10^5 CFU/mL, 24 h at 36 °C
Method: (§1) We performed a study of antibacterial activity of the synthesized compounds 17 on a panel of clinical isolates of the Gram-positive microorganisms S. haemolyticus 602, S. aureus 3798 (VISA), and Enterococcus faecalis 560 (Van A) and against the Gram-negative strain Escherichia coli 25922 ATCC by the MTT method (Table 1).
(§2) The in vitro study was performed according to the recommendations of the European Committee on Antimicrobial Susceptibility testing. The MIC values for Gram-positive and Gram-negative bacterial strains were determined by the broth micro-dilution method using Mueller Hinton broth (Acumedia Manufacturers Inc., Lansing, MI, USA) and the National Committee for Clinical Laboratory Standards procedures as described earlier.

[2] = system: Escherichia coli 25922 ATCC; test: MIC, broth micro-dilution, Gram-negative strain; type: cell-based; conditions: Mueller Hinton broth, inoculum 5 × 10^5 CFU/mL, 24 h at 36 °C
Method: as §1, §2

[3] = system: S. haemolyticus 602; test: MIC, broth micro-dilution, Gram-positive clinical isolate; type: cell-based, Staphylococcus haemolyticus; conditions: Mueller Hinton broth, inoculum 5 × 10^5 CFU/mL, 24 h at 36 °C
Method: as §1, §2

[4] = system: Enterococcus faecalis 560 (Van A); test: MIC, broth micro-dilution, Gram-positive clinical isolate (Van A); type: cell-based; conditions: Mueller Hinton broth, inoculum 5 × 10^5 CFU/mL, 24 h at 36 °C
Method: as §1, §2

[5] = system: Gram-positive bacteria; conditions: compared with vancomycin; cited from earlier work
Text: Another antibiotic drug of this class, eremomycin (2), was discovered at the Gause Institute of New Antibiotics. It was isolated from Amycolatopsis orientalis subsp.

Molecule | MIC (Minimum Inhibitory Antibiotic Concentration), S. aureus 3798 (VISA) [1] [µg/mL] | MIC (Minimum Inhibitory Antibiotic Concentration), E. coli 25922 ATCC [2] [µg/mL] | MIC (Minimum Inhibitory Antibiotic Concentration), E. coli 25922 ATCC ([2]; listed as 1) [µg/mL] | MIC (Minimum Inhibitory Antibiotic Concentration), S. haemoliticus 602 [3] [µg/mL] | MIC (Minimum Inhibitory Antibiotic Concentration), E. faecalis 560 (Van A) [4] [µg/mL] | MIC (Minimum Inhibitory Antibiotic Concentration), E. coli 25922 ATCC ([2]; listed as 2) [µg/mL] | efficacy against Gram-positive bacteria relative to vancomycin [5]
CN[C@H](CC(C)C)C(=O)N[C@H]1C(=O)N[C@@H](CC(N)=O)C(=O)N[C@H]2C(=O)N[C@H]3C(=O)N[C@H](C(=O)N[C@H](C(=O)O)c4cc(O)cc(O)c4-c4cc3ccc4O)[C@H](O)c3ccc(c(Cl)c3)Oc3cc2cc(c3O[C@@H]2O[C@H](CO)[C@@H](O)[C@H](O)[C@H]2O[C@H]2C[C@](C)(N)[C@H](O)[C@H](C)O2)Oc2ccc(cc2Cl)[C@H]1O [Vancomycin (1), Vancomycin] | 8 (≈ 5.52 µM) | >64 | > 64 | 1 (≈ 0.69 µM) | >64 | – | –
3,6′-Di-Cbz-Kanamycinyl A 1-Amide of Vancomycin [Compound 5] | 2 | >64 | – | – | 32 | – | –
3,6′-Di-Cbz-Kanamycinyl A 1-Amide of Eremomycin [Compound 6] | 4 | >64 | – | – | 8 | – | –
CN[C@H](CC(C)C)C(=O)N[C@H]1C(=O)N[C@@H](CC(N)=O)C(=O)N[C@H]2C(=O)N[C@H]3C(=O)N[C@H](C(=O)N[C@@H](C(=O)O)c4cc(O)cc(O)c4-c4cc3ccc4O)[C@H](O[C@@H]3C[C@@](C)(N)[C@H](O)[C@@H](C)O3)c3ccc(cc3)Oc3cc2cc(c3O[C@H]2O[C@@H](CO)[C@H](O)[C@@H](O)[C@@H]2O[C@H]2C[C@](C)(N)[C@@H](O)[C@H](C)O2)Oc2ccc(cc2Cl)[C@H]1O (stereo in doubt) [Eremomycin (2), Eremomycin] | 16 (≈ 10.3 µM) | 64 (≈ 41.1 µM) | – | 0.25 (≈ 0.16 µM) | >64 | > 64 | three to five times higher
Kanamycin A [Kanamycin A (3)] | – | 4 | – | – | – | – | –
Kanamycinyl A 1-Amide of Eremomycin [Compound 7] | 2 | >64 | – | 0.25 | 32 | – | –
NC1CC(NC(=O)OCc2ccccc2)C(OC2OC(CNC(=O)OCc3ccccc3)C(O)C(O)C2O)C(O)C1OC1OC(CO)C(O)C(N)C1O (centres unmarked) [Compound 4, 3,6′-Di-Benzyloxycarbonyl-Kanamycin A] | – | >64 | – | – | – | – | –
